# Source: ChEMBL document CHEMBL5291721, “A preclinical secondary pharmacology resource illuminates target-adverse drug reaction associations of marketed drugs” (Nat Commun, 2023)
# Key:
# [1] = target: Sodium-dependent dopamine transporter (Homo sapiens, UniProt Q01959)
# Prothrombin = Prothrombin (Homo sapiens, UniProt P00734); assay type: functional
# Estrogen receptor = target: T1, Estrogen receptor (Homo sapiens, UniProt P03372)
# T1 sequence (P03372 whole entry): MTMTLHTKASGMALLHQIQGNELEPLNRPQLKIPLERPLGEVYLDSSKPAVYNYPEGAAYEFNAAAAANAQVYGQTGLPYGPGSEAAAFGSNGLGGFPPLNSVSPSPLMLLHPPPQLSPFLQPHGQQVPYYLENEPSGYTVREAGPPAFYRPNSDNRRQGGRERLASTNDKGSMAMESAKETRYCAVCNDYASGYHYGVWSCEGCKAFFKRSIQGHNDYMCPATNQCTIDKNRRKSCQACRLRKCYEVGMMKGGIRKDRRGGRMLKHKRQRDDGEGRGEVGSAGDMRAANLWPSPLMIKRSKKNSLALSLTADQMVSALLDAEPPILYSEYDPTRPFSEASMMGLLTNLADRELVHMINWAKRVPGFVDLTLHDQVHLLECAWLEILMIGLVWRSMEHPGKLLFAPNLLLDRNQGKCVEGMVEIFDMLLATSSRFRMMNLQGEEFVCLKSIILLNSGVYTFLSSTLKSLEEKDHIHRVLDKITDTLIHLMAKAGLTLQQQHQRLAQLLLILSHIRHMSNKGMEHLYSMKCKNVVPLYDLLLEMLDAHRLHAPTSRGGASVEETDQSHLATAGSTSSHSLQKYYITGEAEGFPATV
# [2] = target: Voltage-gated inwardly rectifying potassium channel KCNH2 (Homo sapiens, UniProt Q12809); assay type: functional; conditions: read-out: AC50
# Sequence of Voltage-gated inwardly rectifying potassium channel KCNH2 (Q12809 whole entry): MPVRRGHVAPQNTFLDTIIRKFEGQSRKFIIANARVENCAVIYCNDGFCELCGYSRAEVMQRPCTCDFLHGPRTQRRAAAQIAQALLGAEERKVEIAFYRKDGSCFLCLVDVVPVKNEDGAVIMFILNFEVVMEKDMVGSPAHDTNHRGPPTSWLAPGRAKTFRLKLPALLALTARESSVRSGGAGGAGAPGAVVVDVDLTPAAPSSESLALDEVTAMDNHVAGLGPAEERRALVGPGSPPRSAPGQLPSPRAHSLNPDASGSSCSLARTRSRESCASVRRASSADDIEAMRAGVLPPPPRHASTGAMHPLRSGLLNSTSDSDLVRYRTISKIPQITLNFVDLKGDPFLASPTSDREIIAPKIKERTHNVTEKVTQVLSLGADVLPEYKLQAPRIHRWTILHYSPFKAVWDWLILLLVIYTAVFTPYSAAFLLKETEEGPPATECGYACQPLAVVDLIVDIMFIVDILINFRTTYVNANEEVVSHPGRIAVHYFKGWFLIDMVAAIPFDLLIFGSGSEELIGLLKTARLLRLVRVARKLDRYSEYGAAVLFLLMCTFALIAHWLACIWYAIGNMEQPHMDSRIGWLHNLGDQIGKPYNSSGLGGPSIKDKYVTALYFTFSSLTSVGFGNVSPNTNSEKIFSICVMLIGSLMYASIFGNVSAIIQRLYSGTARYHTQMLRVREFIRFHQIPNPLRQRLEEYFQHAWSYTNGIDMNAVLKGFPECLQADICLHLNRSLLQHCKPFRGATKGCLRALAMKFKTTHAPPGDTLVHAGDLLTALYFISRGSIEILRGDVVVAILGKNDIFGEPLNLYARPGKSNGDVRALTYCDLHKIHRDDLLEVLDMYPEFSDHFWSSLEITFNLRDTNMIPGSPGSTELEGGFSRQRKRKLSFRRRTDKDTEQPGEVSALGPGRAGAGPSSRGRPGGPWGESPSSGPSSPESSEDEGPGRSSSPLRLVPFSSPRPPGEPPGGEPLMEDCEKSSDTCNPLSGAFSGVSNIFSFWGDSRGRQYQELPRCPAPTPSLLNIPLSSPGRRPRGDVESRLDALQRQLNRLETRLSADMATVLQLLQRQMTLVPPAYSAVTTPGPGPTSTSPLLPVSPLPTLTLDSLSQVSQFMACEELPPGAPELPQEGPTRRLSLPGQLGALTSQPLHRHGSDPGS
# [3] = target: Sodium-dependent noradrenaline transporter (Homo sapiens, UniProt P23975)
# Sequence of Sodium-dependent noradrenaline transporter (P23975 whole entry): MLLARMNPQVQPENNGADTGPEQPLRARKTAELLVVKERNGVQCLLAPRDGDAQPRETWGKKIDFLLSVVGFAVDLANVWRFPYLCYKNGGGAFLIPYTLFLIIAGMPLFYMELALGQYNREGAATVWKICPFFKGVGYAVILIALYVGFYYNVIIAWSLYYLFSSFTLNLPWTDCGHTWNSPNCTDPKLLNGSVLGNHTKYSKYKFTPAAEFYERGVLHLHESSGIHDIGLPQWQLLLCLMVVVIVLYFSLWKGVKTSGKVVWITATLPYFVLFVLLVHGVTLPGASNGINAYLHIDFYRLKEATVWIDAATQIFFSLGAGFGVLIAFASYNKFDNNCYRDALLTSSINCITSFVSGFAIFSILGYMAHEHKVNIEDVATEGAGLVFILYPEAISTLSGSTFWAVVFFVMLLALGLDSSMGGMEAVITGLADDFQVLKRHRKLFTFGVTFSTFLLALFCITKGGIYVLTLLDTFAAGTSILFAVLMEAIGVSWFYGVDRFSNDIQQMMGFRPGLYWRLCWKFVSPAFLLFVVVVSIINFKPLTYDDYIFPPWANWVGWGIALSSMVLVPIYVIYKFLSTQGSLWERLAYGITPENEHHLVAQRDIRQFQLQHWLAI
# [4] = target: 5-hydroxytryptamine receptor 2B (Homo sapiens, UniProt P41595); assay type: functional, cell-based
# Sequence of 5-hydroxytryptamine receptor 2B (P41595 whole entry): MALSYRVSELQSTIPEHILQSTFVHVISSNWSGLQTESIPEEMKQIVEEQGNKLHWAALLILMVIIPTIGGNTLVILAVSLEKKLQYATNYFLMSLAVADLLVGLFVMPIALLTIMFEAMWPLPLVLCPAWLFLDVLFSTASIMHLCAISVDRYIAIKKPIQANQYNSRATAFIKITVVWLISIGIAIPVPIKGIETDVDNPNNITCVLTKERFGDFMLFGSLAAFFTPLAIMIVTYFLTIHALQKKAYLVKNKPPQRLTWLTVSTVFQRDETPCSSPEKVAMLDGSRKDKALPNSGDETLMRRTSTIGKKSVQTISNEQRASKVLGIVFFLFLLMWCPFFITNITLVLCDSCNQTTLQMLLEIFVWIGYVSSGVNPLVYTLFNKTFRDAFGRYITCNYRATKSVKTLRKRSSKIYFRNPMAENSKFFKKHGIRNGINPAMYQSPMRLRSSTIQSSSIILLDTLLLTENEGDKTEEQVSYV
# Thromboxane A2 receptor = target: T2, Thromboxane A2 receptor (Homo sapiens, UniProt P21731); assay type: functional, cell-based
# T2 sequence (P21731 whole entry): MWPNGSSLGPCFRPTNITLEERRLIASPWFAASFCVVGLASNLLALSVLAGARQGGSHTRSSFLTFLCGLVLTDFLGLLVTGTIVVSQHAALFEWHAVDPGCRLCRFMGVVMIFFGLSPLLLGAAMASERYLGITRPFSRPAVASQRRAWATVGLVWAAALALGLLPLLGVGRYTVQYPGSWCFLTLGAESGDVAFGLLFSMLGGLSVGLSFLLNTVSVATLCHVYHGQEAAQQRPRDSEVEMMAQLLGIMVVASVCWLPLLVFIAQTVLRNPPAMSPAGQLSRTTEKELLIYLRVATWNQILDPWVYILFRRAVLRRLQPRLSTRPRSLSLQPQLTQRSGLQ
# Histamine H3 receptor = Histamine H3 receptor (Homo sapiens, UniProt Q9Y5N1)
# Sequence of Histamine H3 receptor (Q9Y5N1 whole entry): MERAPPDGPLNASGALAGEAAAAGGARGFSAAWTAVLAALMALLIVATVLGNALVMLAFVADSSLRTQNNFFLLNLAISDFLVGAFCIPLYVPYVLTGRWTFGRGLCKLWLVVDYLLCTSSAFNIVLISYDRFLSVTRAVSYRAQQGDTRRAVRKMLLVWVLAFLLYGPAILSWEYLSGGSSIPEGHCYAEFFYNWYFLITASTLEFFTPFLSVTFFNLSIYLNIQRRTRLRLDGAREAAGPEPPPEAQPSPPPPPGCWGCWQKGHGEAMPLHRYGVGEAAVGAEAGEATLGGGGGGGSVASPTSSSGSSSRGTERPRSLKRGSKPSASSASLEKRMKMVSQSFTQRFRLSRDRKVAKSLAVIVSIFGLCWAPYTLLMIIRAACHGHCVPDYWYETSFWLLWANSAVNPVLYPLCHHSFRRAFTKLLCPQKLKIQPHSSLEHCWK
# [5] = target: Prostaglandin G/H synthase 1 (Homo sapiens, UniProt P23219); assay type: functional
# Sequence of Prostaglandin G/H synthase 1 (P23219 whole entry): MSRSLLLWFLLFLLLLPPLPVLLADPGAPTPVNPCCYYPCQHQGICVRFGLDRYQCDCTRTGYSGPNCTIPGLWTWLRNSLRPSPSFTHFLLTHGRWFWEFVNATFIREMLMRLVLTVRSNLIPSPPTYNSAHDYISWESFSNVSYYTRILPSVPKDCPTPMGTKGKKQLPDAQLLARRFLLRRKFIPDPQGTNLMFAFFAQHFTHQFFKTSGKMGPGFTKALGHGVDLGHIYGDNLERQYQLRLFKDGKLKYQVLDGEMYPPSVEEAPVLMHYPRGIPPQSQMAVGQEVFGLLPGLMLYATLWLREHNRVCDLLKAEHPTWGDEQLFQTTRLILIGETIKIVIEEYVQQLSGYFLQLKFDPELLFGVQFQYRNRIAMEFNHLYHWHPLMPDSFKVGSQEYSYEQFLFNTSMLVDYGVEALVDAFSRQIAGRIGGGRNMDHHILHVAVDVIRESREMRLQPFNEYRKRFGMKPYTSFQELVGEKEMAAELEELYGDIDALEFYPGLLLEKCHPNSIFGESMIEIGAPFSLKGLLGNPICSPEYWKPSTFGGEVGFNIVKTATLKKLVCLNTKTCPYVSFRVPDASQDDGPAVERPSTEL
# [6] = target: T3, Alpha-2A adrenergic receptor (Homo sapiens, UniProt P08913)
# T3 sequence (P08913 whole entry): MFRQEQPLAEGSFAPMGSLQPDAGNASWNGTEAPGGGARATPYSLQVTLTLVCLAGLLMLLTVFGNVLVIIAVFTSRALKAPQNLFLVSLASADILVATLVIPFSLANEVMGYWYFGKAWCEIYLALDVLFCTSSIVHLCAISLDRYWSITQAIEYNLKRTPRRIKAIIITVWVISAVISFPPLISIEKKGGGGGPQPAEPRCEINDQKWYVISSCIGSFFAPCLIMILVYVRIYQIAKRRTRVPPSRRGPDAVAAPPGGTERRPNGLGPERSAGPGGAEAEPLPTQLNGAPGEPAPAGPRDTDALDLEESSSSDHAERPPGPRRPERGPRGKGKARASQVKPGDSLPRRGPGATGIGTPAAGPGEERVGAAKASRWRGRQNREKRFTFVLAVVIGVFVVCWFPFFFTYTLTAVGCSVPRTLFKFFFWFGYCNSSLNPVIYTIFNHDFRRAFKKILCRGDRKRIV
# D(1A) dopamine receptor = D(1A) dopamine receptor (Homo sapiens, UniProt P21728)
# Sequence of D(1A) dopamine receptor (P21728 whole entry): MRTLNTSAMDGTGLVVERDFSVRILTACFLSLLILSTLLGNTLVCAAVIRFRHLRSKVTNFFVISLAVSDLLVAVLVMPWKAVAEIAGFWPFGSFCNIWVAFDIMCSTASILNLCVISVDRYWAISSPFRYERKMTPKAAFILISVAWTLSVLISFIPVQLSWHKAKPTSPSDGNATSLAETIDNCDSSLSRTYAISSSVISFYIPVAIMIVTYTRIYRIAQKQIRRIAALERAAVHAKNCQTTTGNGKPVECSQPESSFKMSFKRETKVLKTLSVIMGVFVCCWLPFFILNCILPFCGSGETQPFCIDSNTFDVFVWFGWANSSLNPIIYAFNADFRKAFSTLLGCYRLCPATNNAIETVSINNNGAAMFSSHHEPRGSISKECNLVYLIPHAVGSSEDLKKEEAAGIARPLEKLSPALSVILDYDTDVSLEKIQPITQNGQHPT
# Mu-type opioid receptor = Mu-type opioid receptor (Homo sapiens, UniProt P35372)
# Sequence of Mu-type opioid receptor (P35372 whole entry): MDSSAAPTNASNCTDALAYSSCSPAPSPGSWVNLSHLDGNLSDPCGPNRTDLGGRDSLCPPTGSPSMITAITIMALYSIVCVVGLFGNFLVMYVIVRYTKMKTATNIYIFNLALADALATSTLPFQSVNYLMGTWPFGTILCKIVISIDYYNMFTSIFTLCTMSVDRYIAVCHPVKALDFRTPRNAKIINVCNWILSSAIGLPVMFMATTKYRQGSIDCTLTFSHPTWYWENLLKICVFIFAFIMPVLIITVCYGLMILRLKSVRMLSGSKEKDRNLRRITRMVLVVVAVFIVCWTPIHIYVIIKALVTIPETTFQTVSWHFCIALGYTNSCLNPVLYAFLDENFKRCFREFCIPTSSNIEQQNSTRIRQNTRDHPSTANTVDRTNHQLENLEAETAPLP
# [7] = target: T4, Alpha-1A adrenergic receptor (Homo sapiens, UniProt P35348); assay type: functional, cell-based
# T4 sequence (P35348 whole entry): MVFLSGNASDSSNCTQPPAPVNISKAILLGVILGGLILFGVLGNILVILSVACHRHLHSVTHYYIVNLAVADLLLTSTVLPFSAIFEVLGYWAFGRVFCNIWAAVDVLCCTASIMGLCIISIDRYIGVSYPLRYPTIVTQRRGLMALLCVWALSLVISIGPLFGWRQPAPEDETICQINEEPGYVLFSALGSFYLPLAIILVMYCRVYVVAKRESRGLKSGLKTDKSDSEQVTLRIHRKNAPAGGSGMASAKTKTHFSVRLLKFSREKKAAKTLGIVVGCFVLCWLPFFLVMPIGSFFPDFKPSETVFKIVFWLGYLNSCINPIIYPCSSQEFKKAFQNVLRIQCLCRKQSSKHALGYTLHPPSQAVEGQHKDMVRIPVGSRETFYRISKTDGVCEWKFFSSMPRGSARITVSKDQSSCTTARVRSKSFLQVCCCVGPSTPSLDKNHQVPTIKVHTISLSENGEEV
# [8] = target: T5, Amine oxidase [flavin-containing] A (Homo sapiens, UniProt P21397); assay type: functional
# T5 sequence (P21397 whole entry): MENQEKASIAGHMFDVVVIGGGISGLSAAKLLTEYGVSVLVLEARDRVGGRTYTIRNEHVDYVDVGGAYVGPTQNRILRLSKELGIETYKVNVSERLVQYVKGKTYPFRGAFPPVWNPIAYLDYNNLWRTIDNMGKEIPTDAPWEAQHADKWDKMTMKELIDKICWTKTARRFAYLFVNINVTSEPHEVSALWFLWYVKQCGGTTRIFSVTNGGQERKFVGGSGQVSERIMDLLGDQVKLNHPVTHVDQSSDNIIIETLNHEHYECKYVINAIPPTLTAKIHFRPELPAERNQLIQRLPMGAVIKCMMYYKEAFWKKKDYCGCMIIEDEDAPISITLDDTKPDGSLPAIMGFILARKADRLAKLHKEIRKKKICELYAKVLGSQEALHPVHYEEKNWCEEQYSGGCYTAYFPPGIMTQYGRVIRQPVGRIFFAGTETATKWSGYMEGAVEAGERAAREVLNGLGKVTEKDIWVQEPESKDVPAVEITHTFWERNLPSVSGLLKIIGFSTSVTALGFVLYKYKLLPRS
# Also: assay procedure not described here.
# Sequence of Sodium-dependent dopamine transporter (Q01959 whole entry): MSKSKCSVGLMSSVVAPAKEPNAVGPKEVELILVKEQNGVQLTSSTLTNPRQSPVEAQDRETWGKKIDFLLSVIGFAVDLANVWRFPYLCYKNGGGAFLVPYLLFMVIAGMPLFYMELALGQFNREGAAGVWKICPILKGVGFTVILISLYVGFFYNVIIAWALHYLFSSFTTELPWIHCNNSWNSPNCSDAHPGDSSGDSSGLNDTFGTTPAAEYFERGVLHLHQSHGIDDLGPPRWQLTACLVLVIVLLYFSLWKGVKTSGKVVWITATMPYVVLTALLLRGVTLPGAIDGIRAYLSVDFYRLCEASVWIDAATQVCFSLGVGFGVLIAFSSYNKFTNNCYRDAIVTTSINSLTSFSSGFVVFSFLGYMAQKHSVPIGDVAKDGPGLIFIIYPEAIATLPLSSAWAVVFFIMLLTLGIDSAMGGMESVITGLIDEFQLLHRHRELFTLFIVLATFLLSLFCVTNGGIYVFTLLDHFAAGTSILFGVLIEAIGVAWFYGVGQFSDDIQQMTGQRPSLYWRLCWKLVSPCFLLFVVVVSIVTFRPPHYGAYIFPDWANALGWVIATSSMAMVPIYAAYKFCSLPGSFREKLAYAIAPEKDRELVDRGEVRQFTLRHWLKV
Compound,AC50 [1],AC50 (Prothrombin),AC50 (Estrogen receptor),AC50 [2],AC50 [3],AC50 [4],AC50 (Thromboxane A2 receptor),AC50 (Histamine H3 receptor),AC50 [5],AC50 [6],AC50 (D(1A) dopamine receptor),AC50 (Mu-type opioid receptor),AC50 [7],AC50 [8]
C[C@]1(COc2ccc(N3CCC(Oc4ccc(OC(F)(F)F)cc4)CC3)cc2)Cn2cc([N+](=O)[O-])nc2O1,> 30 µM,> 30 µM,> 30 µM,> 30 µM,12.9 µM,> 30 µM,> 30 µM,> 30 µM,> 30 µM,> 30 µM,> 30 µM,> 30 µM,> 30 µM,> 30 µM
CC(=O)OC(C)OC(=O)C(C)c1ccc(-c2ccccc2)c(F)c1 (stereo not given),> 30 µM,> 30 µM,> 30 µM,> 30 µM,> 30 µM,> 30 µM,> 30 µM,> 30 µM,0.0212 µM,> 30 µM,> 30 µM,> 30 µM,> 30 µM,> 30 µM
COC(=O)C1=C(C)NC(C)=C(C(=O)O[C@H]2CCN(Cc3ccccc3)C2)[C@H]1c1cccc([N+](=O)[O-])c1 [BARNIDIPINE],1.9 µM,> 30 µM,> 30 µM,1.8 µM,0.635 µM,> 30 µM,> 30 µM,> 30 µM,> 30 µM,6.54 µM,8.89 µM,3.24 µM,> 30 µM,> 30 µM
CO/N=C(\C(=O)N[C@@H]1C(=O)N2C(C(=O)[O-])=C(C[n+]3cccc4c3CCC4)CS[C@H]12)c1csc(N)n1 [CEFPIROME],> 30 µM,> 30 µM,> 30 µM,> 30 µM,> 30 µM,> 30 µM,> 30 µM,> 30 µM,> 30 µM,> 30 µM,> 30 µM,> 30 µM,> 30 µM,> 30 µM
Nc1ncnc(Nc2ccc(Cl)cc2)n1 [CHLORAZANIL],> 30 µM,> 30 µM,> 30 µM,> 30 µM,5.4 µM,> 30 µM,> 30 µM,> 30 µM,> 30 µM,> 30 µM,> 30 µM,> 30 µM,> 30 µM,> 30 µM
CC[C@H]1OC(=O)[C@H](C)[C@@H](O[C@H]2C[C@@](C)(OC)[C@@H](O)[C@H](C)O2)[C@H](C)[C@@H](O[C@@H]2O[C@H](C)C[C@H](N(C)C)[C@H]2O)[C@](C)(OC)C[C@@H](C)C(=O)[C@H](C)[C@@H](O)[C@]1(C)O [CLARITHROMYCIN],> 30 µM,> 30 µM,> 30 µM,> 30 µM,> 30 µM,> 30 µM,> 30 µM,> 30 µM,> 30 µM,> 30 µM,> 30 µM,> 30 µM,> 30 µM,> 30 µM
CCC[C@@H]1C[C@@H](C(=O)N[C@@H]([C@H]2O[C@H](SC)[C@H](OP(=O)(O)O)[C@@H](O)[C@H]2O)[C@H](C)Cl)N(C)C1 [CLINDAMYCIN PHOSPHATE],> 30 µM,> 30 µM,> 30 µM,> 30 µM,> 30 µM,> 30 µM,> 30 µM,> 30 µM,> 30 µM,> 30 µM,> 30 µM,> 30 µM,> 30 µM,> 30 µM
CC1(C)S[C@@H]2[C@H](NC(=O)[C@H](NC(=O)N3CCN(S(C)(=O)=O)C3=O)c3ccccc3)C(=O)N2[C@H]1C(=O)O [MEZLOCILLIN],> 30 µM,> 30 µM,> 30 µM,–,> 30 µM,> 30 µM,> 30 µM,> 30 µM,> 30 µM,> 30 µM,> 30 µM,> 30 µM,> 30 µM,> 30 µM
CC(c1ccc(Cl)c(Cl)c1)N1N=C(N)CC1=O (stereo not given) [MUZOLIMINE],> 30 µM,> 30 µM,> 30 µM,–,> 30 µM,> 30 µM,> 30 µM,> 30 µM,13.3 µM,> 30 µM,> 30 µM,> 30 µM,> 30 µM,> 30 µM
c1cc(CN2CCCNCCNCCCNCC2)ccc1CN1CCCNCCNCCCNCC1 [PLERIXAFOR],> 30 µM,> 30 µM,> 30 µM,–,> 30 µM,> 30 µM,> 30 µM,0.307 µM,> 30 µM,> 30 µM,> 30 µM,> 30 µM,> 30 µM,> 30 µM
O=C(NC(Cc1cc(=O)[nH]c2ccccc12)C(=O)O)c1ccc(Cl)cc1 (stereo not given) [REBAMIPIDE],> 30 µM,> 30 µM,> 30 µM,–,> 30 µM,> 30 µM,> 30 µM,> 30 µM,> 30 µM,> 30 µM,> 30 µM,> 30 µM,> 30 µM,> 30 µM
